# Reference: the supplement of paper PMC10307832
# Tests used:
# Experiment in all cases: relative viability (nuclei count vs DMSO), 5 days (fraction); higher = more cells survive
# AGI-6780 = compound: O=C(Nc1cccc(C(F)(F)F)c1)Nc1cc(S(=O)(=O)NC2CC2)ccc1-c1ccsc1 [AGI-6780]
# Outline: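 Viability is treated-well nuclei as a fraction of vehicle-well nuclei, reported as the median across plates. Before counting, lung cancer cell lines were kept overnight at 37 °C in 1536-well plates, pinned with five √10-spaced library-drug doses on vehicle-anchored plates, and left 5 days without medium change, then fixed, permeabilised and Hoechst-stained in one step, imaged at 4× and counted by MetaXpress. A plate passed only if control CV was below 25% and at least one doubling occurred.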
# AGI-6780 + OSI-027 = compound: O=C(Nc1cccc(C(F)(F)F)c1)Nc1cc(S(=O)(=O)NC2CC2)ccc1-c1ccsc1 [AGI-6780] + COc1cccc2cc(-c3nc([C@H]4CC[C@H](C(=O)O)CC4)n4ncnc(N)c34)[nH]c12 [OSI-027] (partner 0.5 µM)
# Outline: (§1)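 Lung cancer cell lines in 1536-well plates were dosed by pin tool the day after seeding, either with one drug alone or with a fixed anchor-drug dose plus five library-drug doses (not always all listed) in √10 steps. After 5 days, cells were fixed and their nuclei stained in one step (final 0.05% Triton X-100, 1% formaldehyde, 1 ug/ml Hoechst), then counted on 4× images. Relative viability is the nuclei count in treated wells divided by that in vehicle wells. Values are medians of duplicate plates.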
# AGI-6780 + Palbociclib = compound: O=C(Nc1cccc(C(F)(F)F)c1)Nc1cc(S(=O)(=O)NC2CC2)ccc1-c1ccsc1 [AGI-6780] + CC(=O)c1c(C)c2cnc(Nc3ccc(N4CCNCC4)cn3)nc2n(C2CCCC2)c1=O [Palbociclib] (partner 0.5 µM)
# Outline: as §1
# AGI-6780 + Foretinib = compound: O=C(Nc1cccc(C(F)(F)F)c1)Nc1cc(S(=O)(=O)NC2CC2)ccc1-c1ccsc1 [AGI-6780] + COc1cc2c(Oc3ccc(NC(=O)C4(C(=O)Nc5ccc(F)cc5)CC4)cc3F)ccnc2cc1OCCCN1CCOCC1 [Foretinib] (partner 0.25 µM)
# Outline: as §1
Cell Line,relative viability (AGI-6780; 0.08 µM),relative viability (AGI-6780; 0.253 µM),relative viability (AGI-6780; 0.8 µM),relative viability (AGI-6780; 2.53 µM),relative viability (AGI-6780; 8 µM),relative viability (AGI-6780 + OSI-027; first compound 0.08 µM),relative viability (AGI-6780 + OSI-027; first compound 0.253 µM),relative viability (AGI-6780 + OSI-027; first compound 0.8 µM),relative viability (AGI-6780 + OSI-027; first compound 2.53 µM),relative viability (AGI-6780 + OSI-027; first compound 8 µM),relative viability (AGI-6780 + Palbociclib; first compound 0.253 µM),relative viability (AGI-6780 + Palbociclib; first compound 0.8 µM),relative viability (AGI-6780 + Palbociclib; first compound 2.53 µM),relative viability (AGI-6780 + Palbociclib; first compound 8 µM),relative viability (AGI-6780 + Foretinib; first compound 0.08 µM),relative viability (AGI-6780 + Foretinib; first compound 0.253 µM),relative viability (AGI-6780 + Foretinib; first compound 0.8 µM),relative viability (AGI-6780 + Foretinib; first compound 2.53 µM),relative viability (AGI-6780 + Foretinib; first compound 8 µM),relative viability (AGI-6780 + Palbociclib; first compound 0.08 µM)
NCI-H322M,0.896,0.927,1.07,0.922,0.965,0.557,0.562,0.645,0.544,0.64,0.516,0.446,0.434,0.499,1.06,1.01,1.1,1.07,0.982,–
NCI-H358,1.1,0.911,0.95,0.794,0.916,0.846,0.753,0.778,0.467,0.79,0.131,0.119,0.138,0.154,0.631,0.688,0.647,0.573,0.79,0.129
NCI-H441,1.08,1.03,1.04,0.786,1.16,0.78,0.922,0.599,0.54,0.504,0.259,0.232,0.195,0.263,1.03,1.16,1.06,0.754,0.844,0.248
NCI-H460,0.987,0.99,0.998,0.977,0.992,0.752,0.639,0.845,0.574,0.694,0.211,0.144,0.136,0.15,0.98,1.04,1.04,0.998,0.991,0.145
NCI-H520,1.11,1.04,1.09,0.819,1.04,0.293,0.3,0.303,0.189,0.28,0.25,0.232,0.235,0.207,0.684,0.942,1.07,0.655,0.77,0.208
NCI-H647,0.873,0.979,1.01,0.909,1.07,0.784,0.657,0.673,0.668,0.714,0.36,0.48,0.332,0.422,1.1,1.2,1.31,1.11,1.4,0.416
NCI-H650,0.873,1.04,0.937,0.843,1.06,0.509,0.59,0.462,0.443,0.475,0.3,0.258,0.333,0.334,1.06,1.05,1.04,0.961,1.07,0.34
NCI-H661,1,1,1.08,0.876,0.947,0.722,0.745,0.933,0.661,0.772,0.41,0.411,0.371,0.432,1.03,0.986,1.03,0.873,1.05,0.418
NCI-H727,0.988,0.902,1.26,0.885,0.987,0.639,0.821,0.617,0.494,0.685,0.671,0.605,0.56,0.645,1.07,0.982,0.98,0.626,1.02,0.669
NCI-H838,0.984,0.996,0.995,0.83,0.957,0.424,0.434,0.357,0.378,0.39,0.267,0.221,0.218,0.224,1.13,1.02,0.987,0.895,1.02,0.252
NCI-H1355,1.02,1.07,1.03,0.823,1,0.444,0.456,0.422,0.303,0.401,0.409,0.408,0.354,0.342,0.956,0.98,1.06,0.911,1.04,0.432
NCI-H1395,0.928,1,1.09,0.768,0.97,0.632,0.846,0.674,0.53,0.662,0.603,0.616,0.572,0.656,0.917,0.986,0.979,0.901,0.931,0.629
NCI-H1437,0.943,1,1.04,1,0.997,0.851,0.86,0.859,0.898,0.927,0.365,0.25,0.347,0.322,1.2,1.27,1.21,1.31,1.15,0.296
NCI-H1650,0.942,0.915,1.2,0.995,0.976,0.641,0.597,0.856,0.552,0.638,0.456,0.447,0.442,0.432,1.07,1.23,1.06,1.24,1.13,0.297
